Results as given in patent publication US20170258711A1, “Fatty Acid Acylated D-Amino Acids for Oral Peptide Delivery” (Novo Nordisk A/S, priority 2012, published 2017).

Tested on: Caco-2 cells
Experiment: Transepithelial electrical resistance (TEER) of Caco-2 cell monolayers
Assay type: cell-based
Design: unit not given here
Conditions: for TEER 24 h: 24 h after experiment
Procedure: Caco-2 cells were obtained from the American Type Culture Collection (Manassas, Va.). Cells were seeded in culturing flasks and passaged in Dulbecco's Modified Eagle′ medium supplemented with 10% fetal bovine serum, 1% penicillin/streptomycin (100 U/ml and 100 μg/ml, respectively), 1% L-glutamine and 1% nonessential amino acids. Caco-2 cells were seeded onto tissue culture treated polycarbonate filters in 12-well Transwell plates (1.13 cm2, 0.4 μm pore size) at a density of 10^5 cells/well. Monolayers were grown in an atmosphere of 5% CO2-95% O2 at 37° C. Growth media were replaced every other day. The experiment was performed on day 10-14 after seeding of Caco-2 cells.
Before and during the experiment the transepithelial electrical resistance (TEER) of the cell monolayers was monitored. In selected experiments, the transport buffer were changed to culturing medium after end of experiment and the TEER measured 24 h after experiment. The TEER was measured with EVOM™ Epithelial Voltohmmeter connected to Chopsticks.

[1] = Table 9, insulin analogue A14E, B25H, B29K(N(eps)Octadecanedioyl-gGlu-OEG-OEG), desB30 human insulin + 0.5 mM fatty acid acylated amino acid
[2] = Table 12, comparison D- with L-counterparts, footnote: insulin analogue A1(Nα,Nα-Dimethyl), A14E, B1(Nα,Nα-dimethyl), B25H, B29K(N(eps)Octadecanedioyl-gGlu-OEG-OEG), desB30 human insulin
[3] = Table 12, comparison D- with L-counterparts
[4] = Table 11, insulin analogue A1(Nα,Nα-Dimethyl), A14E, B1(Nα,Nα-dimethyl), B25H, B29K(N(eps)Octadecanedioyl-gGlu-OEG-OEG), desB30 human insulin
[5] = Table 10, L-amino acid counterparts, insulin analogue A14E, B25H, B29K(N(eps)Octadecanedioyl-gGlu-OEG-OEG), desB30 human insulin
[6] = Table 10, L-amino acid counterparts

Row | TEER 24 h (Table 9, in culturing medium) | TEER 24 h [3] | TEER 24 h (Table 9, in culturing medium, listed as N-dodecanoyl-D-Leucine) | TEER 24 h [4] | TEER 24 h [6] | TEER 24 h (Table 10, L-amino acid counterparts, listed as N-decanoyl-L-Leucine) | SMILES | TEER 60 min [1] | TEER 60 min [2] | TEER 60 min [4] | TEER 60 min [5]
1 | 108.4 | 108.4 | – | – | – | – | CCCCCCCCCCCC(=O)N[C@H](Cc1ccccc1)C(=O)O [N-dodecanoyl-D-phenylalanine] | 37.6 | 37.6 | – | –
2 | – | 101.4 | – | – | – | – | CCCCCCCCCCCC(=O)N[C@@H](C(=O)O)[C@H](C)CC [N-dodecanoyl-D-isoleucine] | – | 48.3 | – | –
3 | 100.0 | 100 | 101.4 | 91.4 | – | – | CCCCCCCCCCCC(=O)N[C@H](CC(C)C)C(=O)O [N-dodecanoyl-D-leucine] | – | 42.8 | 50.9 | –
4 | 106.2 | 106.2 | – | – | – | – | CCCCCCCCCCCCCCCC(=O)N[C@H](CCC(=O)O)C(=O)O [N-hexadecanoyl-D-glutamic acid] | 35.6 | 35.6 | – | –
5 | 102.2 ± 1.9^¤ | 102.2 ± 1.9^¤ | – | – | – | – | CCCCCCCCCCCCCC(=O)N[C@H](CCC(=O)O)C(=O)O [N-tetradecanoyl-D-glutamic acid] | 79.9 ± 2.9^¤ | 79.9 ± 2.9^¤ | – | –
6 | – | 100.2 | – | – | 100.2 | – | CCCCCCCCCCCCCC(=O)N[C@@H](CC(=O)O)C(=O)O [N-tetradecanoyl-L-aspartic acid, reference compound] | – | 77.1 | – | 77.1
7 | 109.9 | 109.9 | – | – | – | – | CCCCCCCCCCCCCC(=O)N[C@H](Cc1c[nH]c2ccccc12)C(=O)O [N-tetradecanoyl-D-tryptophan] | 31.3 | 31.3 | – | –
8 | – | 122.3 | – | – | 122.3 | – | CCCCCCCCCCCCCC(=O)N[C@@H](Cc1ccc(O)cc1)C(=O)O [N-tetradecanoyl-L-tyrosine, reference compound] | – | 41.9 | – | 41.9
9 | – | 107.9 | – | 91.7 | 107.9 | – | CCCCCCCCCCCC(=O)N[C@@H](CC(C)C)C(=O)O [N-dodecanoyl-L-leucine, reference compound] | – | 47.8 | 57.4 | 47.8
10 | – | 100.4 | – | – | 100.4 | – | CCCCCCCCCCCC(=O)N[C@@H](Cc1ccccc1)C(=O)O [N-dodecanoyl-L-phenylalanine, reference compound] | – | 36.6 | – | 36.6
11 | – | 107.9 | – | – | 107.9 | – | CCCCCCCCCCCCCC(=O)N[C@@H](Cc1c[nH]c2ccccc12)C(=O)O [N-tetradecanoyl-L-tryptophan, reference compound] | – | 27.8 | – | 27.8
12 | 99.3 | 99.3 | – | – | – | – | CCCCCCCCCCCC(=O)N[C@@H](C(=O)O)C(C)C [N-dodecanoyl-D-valine] | 66.1 | 66.1 | – | –
13 | – | 95.3 | – | – | 95.3 | – | CCCCCCCCCCCC(=O)N[C@H](C(=O)O)C(C)C [N-dodecanoyl-L-valine, reference compound] | – | 79.7 | – | 79.7
14 | – | 101.8 | – | – | 101.8 | 102.4 | CCCCCCCCCC(=O)N[C@@H](CC(C)C)C(=O)O [N-decanoyl-L-leucine, reference compound] | – | 92.2 | – | –
15 | 112.2 | 112.2 | – | 87.0 | – | – | CCCCCCCCCCCCCCCC(=O)N[C@H](CC(=O)O)C(=O)O [N-hexadecanoyl-D-aspartic acid] | 24.1 | 24.1 | 74.7 | –
16 | 99.1 | 99.1 | – | – | – | – | CCCCCCCCCCCC(=O)N1CCC[C@@H]1C(=O)O [N-dodecanoyl-D-proline] | 76.6 | 76.6 | – | –
17 | – | 112.3 | – | 97.2 | 112.3 | – | CCCCCCCCCCCCCCCC(=O)N[C@@H](CC(=O)O)C(=O)O [N-hexadecanoyl-L-aspartic acid, reference compound] | – | 33.2 | 76.0 | 33.2
18 | – | 103.1 ± 3.7^¤ | – | – | 103.1 ± 3.7^¤ | – | CCCCCCCCCCCCCC(=O)N[C@@H](CCC(=O)O)C(=O)O [N-tetradecanoyl-L-glutamic acid, reference compound] | – | 82.0 ± 3.2^¤ | – | 82.0 ± 3.2^¤
19 | 125.3 | 125.3 | – | – | – | – | CCCCCCCCCCCCCC(=O)N[C@H](Cc1ccc(O)cc1)C(=O)O [N-tetradecanoyl-D-tyrosine] | 44.4 | 44.4 | – | –
20 | 96.1 | 96.1 | – | – | – | – | CCCCCCCCCCCCCC(=O)N[C@H](CC(=O)O)C(=O)O [N-tetradecanoyl-D-aspartic acid] | 74.2 | 74.2 | – | –
21 | – | 102.4 | – | – | – | – | CCCCCCCCCC(=O)N[C@H](C(=O)O)[C@@H](C)CC [N-decanoyl-L-isoleucine, reference compound] | – | 58.3 | – | –
22 | – | 109.5 | – | – | 109.5 | – | CCCCCCCCCCCCCCCC(=O)N[C@@H](CCC(=O)O)C(=O)O [N-hexadecanoyl-L-glutamic acid, reference compound] | – | 72.3 | – | 72.3
23 | 100.3 | 100.3 | – | – | – | – | CCCCCCCCCC(=O)N[C@H](CC(C)C)C(=O)O [N-decanoyl-D-leucine] | 93.8 | 93.8 | – | –
